Source: ChEMBL document CHEMBL1201862, “PubChem BioAssay data set” (2004)
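These data come from cells grown in 96-well plates and exposed to compound for 48 hours at five concentrations. GI50 marks 50% less growth.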 Activity calls are given as the source filed them. No stated cut-off is given here; in the data, active = GI50 up to about 1.1 µM and inactive = higher.

What was measured:
Experiment in all cases: NCI tumour cell line growth inhibition, 48 h
T47D = test system: T47D
KM12 = test system: KM12
NCI-H460 = test system: NCI-H460
RXF 393 = test system: RXF 393
OVCAR-3 = test system: OVCAR-3
MDA-N = test system: MDA-N
COLO 205 = test system: COLO 205
SK-MEL-2 = test system: SK-MEL-2
SW-620 = test system: SW-620
NCI-H23 = test system: NCI-H23
HCT-15 = test system: HCT-15
UACC-62 = test system: UACC-62
M14 = test system: M14
OVCAR-8 = test system: OVCAR-8
IGROV-1 = test system: IGROV-1
DU-145 = test system: DU-145
MDA-MB-435 = test system: MDA-MB-435
BT-549 = test system: BT-549
HT-29 = test system: HT-29
SK-MEL-28 = test system: SK-MEL-28
HCT-116 = test system: HCT-116
786-0 = test system: 786-0
Malme-3M = test system: Malme-3M
NCI-H226 = test system: NCI-H226
Hs-578T = test system: Hs-578T
SK-MEL-5 = test system: SK-MEL-5
U-251 = test system: U-251
LOX IMVI = test system: LOX IMVI
SNB-75 = test system: SNB-75
HCC 2998 = test system: HCC 2998
OVCAR-5 = test system: OVCAR-5
K562 = test system: K562
A498 = test system: A498
MDA-MB-231 = test system: MDA-MB-231
MOLT-4 = test system: MOLT-4
CCRF-CEM = test system: CCRF-CEM
SK-OV-3 = test system: SK-OV-3
RPMI-8226 = test system: RPMI-8226
SF-268 = test system: SF-268
SN12C = test system: SN12C
UO-31 = test system: UO-31
NCI-H522 = test system: NCI-H522
CAKI-1 = test system: CAKI-1
TK-10 = test system: TK-10
NCI/ADR-RES = test system: NCI/ADR-RES
PC-3 = test system: PC-3
HOP-62 = test system: HOP-62
ACHN = test system: ACHN
UACC-257 = test system: UACC-257
OVCAR-4 = test system: OVCAR-4
SNB-19 = test system: SNB-19
A549 = test system: A549
SF-295 = test system: SF-295
HOP-92 = test system: HOP-92
SR = test system: SR
MCF7 = test system: MCF7
EKVX = test system: EKVX
HL-60 = test system: HL-60

Measured: GI50

CSc1nc(Nc2cccc(C(F)(F)F)c2)c2c(N)nn(C)c2n1
inactive: T47D 71.8 µM | KM12 > 100 µM | NCI-H460 50.9 µM | RXF 393 20.5 µM | OVCAR-3 > 100 µM | MDA-N > 100 µM | COLO 205 > 100 µM | SK-MEL-2 > 100 µM | SW-620 > 100 µM | NCI-H23 > 100 µM | UACC-62 > 100 µM | M14 76 µM | OVCAR-8 > 100 µM | IGROV-1 > 100 µM | DU-145 > 100 µM | MDA-MB-435 > 100 µM | BT-549 > 100 µM | HT-29 51.9 µM | SK-MEL-28 > 100 µM | HCT-116 > 100 µM | 786-0 > 100 µM | Malme-3M 59.4 µM | NCI-H226 > 100 µM | Hs-578T > 100 µM | SK-MEL-5 > 100 µM | U-251 > 100 µM | LOX IMVI 71.1 µM | SNB-75 81.3 µM | HCC 2998 89.7 µM | OVCAR-5 > 100 µM | K562 84.9 µM | A498 48 µM | MDA-MB-231 > 100 µM | MOLT-4 49 µM | CCRF-CEM 38.1 µM | SK-OV-3 > 100 µM | RPMI-8226 > 100 µM | SF-268 > 100 µM | SN12C > 100 µM | UO-31 > 100 µM | NCI-H522 34 µM | CAKI-1 > 100 µM | TK-10 > 100 µM | NCI/ADR-RES 85.3 µM | PC-3 > 100 µM | HOP-62 > 100 µM | ACHN > 100 µM | UACC-257 > 100 µM | OVCAR-4 > 100 µM | SNB-19 > 100 µM | A549 43.6 µM | SF-295 38 µM
> 100 µM: HCT-15

CNC(=O)C(NC(=O)[C@H](CC(C)C)NC(=O)[C@@H](S)CCN1C(=O)N(C)C(C)(C)C1=O)C(C)(C)C (stereo not given in full)
> 100 µM: HCT-15
inactive: T47D > 100 µM | KM12 > 100 µM | NCI-H460 > 100 µM | RXF 393 > 100 µM | MDA-N > 100 µM | SK-MEL-2 > 100 µM | SW-620 > 100 µM | NCI-H23 > 100 µM | UACC-62 > 100 µM | HOP-92 > 100 µM | SR > 100 µM | MCF7 > 100 µM | M14 > 100 µM | OVCAR-8 > 100 µM | IGROV-1 > 100 µM | DU-145 > 100 µM | MDA-MB-435 > 100 µM | BT-549 > 100 µM | HT-29 > 100 µM | SK-MEL-28 > 100 µM | HCT-116 > 100 µM | 786-0 > 100 µM | Malme-3M > 100 µM | NCI-H226 > 100 µM | Hs-578T > 100 µM | SK-MEL-5 > 100 µM | LOX IMVI 2.91 µM | HCC 2998 > 100 µM | OVCAR-5 > 100 µM | K562 79.6 µM | A498 > 100 µM | MOLT-4 > 100 µM | SK-OV-3 > 100 µM | RPMI-8226 > 100 µM | SF-268 > 100 µM | SN12C > 100 µM | UO-31 > 100 µM | EKVX > 100 µM | NCI-H522 > 100 µM | CAKI-1 > 100 µM | TK-10 > 100 µM | NCI/ADR-RES > 100 µM | PC-3 > 100 µM | HL-60 > 100 µM | HOP-62 > 100 µM | ACHN > 100 µM | UACC-257 > 100 µM | OVCAR-4 > 100 µM | SNB-19 > 100 µM | A549 > 100 µM | SF-295 > 100 µM
